In patent US20240024488A1, “COMPOUNDS AND USES THEREOF” (Foghorn Therapeutics Inc., priority 2020, published 2024):

Columns and labels:
[1] = biological target: T1, HiBit-BRG1 fusion protein (Homo sapiens, UniProt P51532); experiment: HiBiT-BRG1 cell-based degradation assay (Nano-Glo HiBiT Lytic Detection, 24 h); settings: HeLa cell line expressing HiBit-BRG1 and LgBit; for Dmax: read-out: BRG1 HiBit Degradation Maximum (%); for DC50: read-out: BRMG1 HiBit Degradation IC50
T1 construct: expressed in transfected cells
How it was run: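 Stable HeLa line co-expressing HiBit-BRG1 and LgBit, 5000 cells/well, treated 24 h in a tissue culture incubator. Lysed with Nano-Glo HiBiT lytic reagent, luminescence read. % degradation normalized to DMSO (high control) and 2 μM reference BRM/BRG1 degrader (low control).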

HiBit-BRM fusion protein = biological target: T2, HiBit-BRM fusion protein (Homo sapiens, UniProt P51531); experiment: HiBiT-BRM cell-based degradation assay (Nano-Glo HiBiT Lytic Detection, 24 h); settings: HeLa cell line expressing HiBiT-BRM; for DC50: read-out: BRM HiBit Degradation IC50
T2 construct: expressed in transfected cells
How it was run: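 HeLa cells stably expressing HiBiT-BRM were treated for 24 h with compounds (10-point 3-fold dilutions, 30 μM final top dose, in duplicate). HiBiT was detected by lytic LgBiT complementation luminescence. % degradation was normalized to DMSO (high control) and 2 μM of a reference BRM/BRG1 degrader (low control).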

T2 sequence (P51531 whole entry, the tested form may be a part): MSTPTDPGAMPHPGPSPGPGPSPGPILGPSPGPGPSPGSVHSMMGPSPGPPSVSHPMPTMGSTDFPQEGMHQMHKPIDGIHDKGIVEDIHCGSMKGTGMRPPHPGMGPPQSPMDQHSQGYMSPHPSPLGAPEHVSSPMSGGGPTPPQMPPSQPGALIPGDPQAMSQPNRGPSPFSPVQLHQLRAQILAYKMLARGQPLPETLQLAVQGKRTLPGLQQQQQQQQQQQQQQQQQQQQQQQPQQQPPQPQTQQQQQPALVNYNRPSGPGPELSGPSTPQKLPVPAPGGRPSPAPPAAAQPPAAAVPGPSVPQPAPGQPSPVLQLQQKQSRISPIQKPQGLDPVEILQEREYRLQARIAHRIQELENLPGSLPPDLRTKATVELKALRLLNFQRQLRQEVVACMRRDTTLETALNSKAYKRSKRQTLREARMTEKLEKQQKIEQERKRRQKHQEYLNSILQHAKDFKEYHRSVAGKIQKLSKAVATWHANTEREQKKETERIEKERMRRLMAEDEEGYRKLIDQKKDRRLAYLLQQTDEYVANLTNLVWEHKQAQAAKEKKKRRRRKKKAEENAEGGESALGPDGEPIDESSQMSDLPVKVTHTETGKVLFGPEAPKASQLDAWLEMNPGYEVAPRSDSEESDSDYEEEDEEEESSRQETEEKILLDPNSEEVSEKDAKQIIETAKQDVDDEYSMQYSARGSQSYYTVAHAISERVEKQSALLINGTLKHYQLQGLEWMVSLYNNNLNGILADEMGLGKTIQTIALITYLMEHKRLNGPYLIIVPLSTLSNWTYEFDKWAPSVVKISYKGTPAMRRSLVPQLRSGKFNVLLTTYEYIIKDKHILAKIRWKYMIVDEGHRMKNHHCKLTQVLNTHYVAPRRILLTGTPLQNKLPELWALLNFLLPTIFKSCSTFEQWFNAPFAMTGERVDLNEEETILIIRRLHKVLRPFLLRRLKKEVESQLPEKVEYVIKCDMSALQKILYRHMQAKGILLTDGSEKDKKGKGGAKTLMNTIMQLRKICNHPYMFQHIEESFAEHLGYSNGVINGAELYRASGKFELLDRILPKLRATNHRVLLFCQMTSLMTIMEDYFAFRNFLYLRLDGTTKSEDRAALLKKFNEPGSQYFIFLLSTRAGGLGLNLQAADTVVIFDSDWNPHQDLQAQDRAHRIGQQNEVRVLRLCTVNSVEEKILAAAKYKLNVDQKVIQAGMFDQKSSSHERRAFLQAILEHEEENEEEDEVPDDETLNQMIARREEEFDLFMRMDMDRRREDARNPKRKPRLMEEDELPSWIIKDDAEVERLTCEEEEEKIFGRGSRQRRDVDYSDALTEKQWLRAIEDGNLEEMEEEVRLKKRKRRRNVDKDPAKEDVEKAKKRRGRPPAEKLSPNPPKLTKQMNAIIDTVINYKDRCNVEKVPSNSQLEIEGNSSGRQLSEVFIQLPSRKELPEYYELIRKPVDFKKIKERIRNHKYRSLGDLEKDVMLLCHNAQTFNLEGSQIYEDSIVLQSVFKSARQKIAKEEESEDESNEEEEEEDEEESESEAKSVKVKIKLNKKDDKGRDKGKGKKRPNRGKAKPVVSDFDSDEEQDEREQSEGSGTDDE
T1 sequence (P51532 whole entry, the tested form may be a part): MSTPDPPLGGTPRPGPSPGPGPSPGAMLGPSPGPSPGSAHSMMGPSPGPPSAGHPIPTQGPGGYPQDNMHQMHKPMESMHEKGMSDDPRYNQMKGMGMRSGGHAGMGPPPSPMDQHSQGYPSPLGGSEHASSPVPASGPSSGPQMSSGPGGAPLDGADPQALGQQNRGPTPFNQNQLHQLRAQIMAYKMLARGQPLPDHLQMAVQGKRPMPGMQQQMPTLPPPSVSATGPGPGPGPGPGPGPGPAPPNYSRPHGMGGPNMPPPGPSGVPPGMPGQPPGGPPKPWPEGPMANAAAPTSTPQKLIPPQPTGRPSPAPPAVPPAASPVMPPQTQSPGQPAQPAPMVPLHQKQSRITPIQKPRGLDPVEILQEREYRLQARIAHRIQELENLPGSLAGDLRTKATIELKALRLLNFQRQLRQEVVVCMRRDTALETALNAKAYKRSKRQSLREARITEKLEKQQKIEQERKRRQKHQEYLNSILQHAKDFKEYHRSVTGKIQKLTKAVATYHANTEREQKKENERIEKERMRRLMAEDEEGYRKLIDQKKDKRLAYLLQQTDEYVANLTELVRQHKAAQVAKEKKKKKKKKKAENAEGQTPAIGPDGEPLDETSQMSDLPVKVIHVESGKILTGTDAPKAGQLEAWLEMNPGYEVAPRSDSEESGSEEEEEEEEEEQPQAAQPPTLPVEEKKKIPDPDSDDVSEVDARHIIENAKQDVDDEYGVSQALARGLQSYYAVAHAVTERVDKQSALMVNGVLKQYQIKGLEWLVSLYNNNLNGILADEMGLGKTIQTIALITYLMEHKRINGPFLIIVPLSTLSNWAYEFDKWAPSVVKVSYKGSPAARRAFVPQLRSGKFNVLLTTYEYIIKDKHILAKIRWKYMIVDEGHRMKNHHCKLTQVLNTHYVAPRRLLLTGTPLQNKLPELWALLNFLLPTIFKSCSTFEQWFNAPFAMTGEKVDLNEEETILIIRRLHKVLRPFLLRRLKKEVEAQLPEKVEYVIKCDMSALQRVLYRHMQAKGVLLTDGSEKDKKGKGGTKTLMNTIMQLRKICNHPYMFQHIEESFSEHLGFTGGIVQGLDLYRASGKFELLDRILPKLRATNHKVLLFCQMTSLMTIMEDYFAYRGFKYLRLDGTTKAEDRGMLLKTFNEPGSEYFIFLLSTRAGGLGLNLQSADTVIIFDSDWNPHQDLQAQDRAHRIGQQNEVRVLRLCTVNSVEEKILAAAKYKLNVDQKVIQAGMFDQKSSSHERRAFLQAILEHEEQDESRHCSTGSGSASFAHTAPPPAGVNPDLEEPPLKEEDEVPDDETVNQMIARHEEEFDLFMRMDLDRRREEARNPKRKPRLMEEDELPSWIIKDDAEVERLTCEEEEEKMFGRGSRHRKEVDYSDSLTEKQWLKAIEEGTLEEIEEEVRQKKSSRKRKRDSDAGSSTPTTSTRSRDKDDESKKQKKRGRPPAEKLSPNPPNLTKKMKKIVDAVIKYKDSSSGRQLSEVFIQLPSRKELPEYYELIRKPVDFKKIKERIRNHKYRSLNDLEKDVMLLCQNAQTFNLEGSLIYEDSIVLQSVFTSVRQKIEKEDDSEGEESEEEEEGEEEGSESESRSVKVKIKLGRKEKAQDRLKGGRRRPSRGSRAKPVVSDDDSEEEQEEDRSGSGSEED

Dmax [1] [%] | DC50 [1] [µM] | DC50 (HiBit-BRM fusion protein) [µM] | SMILES | BRM HiBit Degradation Maximum (%) (HiBit-BRM fusion protein)
> 50 | > 0.1 | > 0.01 | Cc1ncsc1-c1ccc([C@H](C)NC(=O)[C@@H]2C[C@@H](O)CN2C(=O)C(c2cc(C3CCN(C(=O)[C@H]4CCc5[nH]c6nnc(-c7ccccc7O)cc6c5C4)CC3)no2)C(C)C)cc1 (single isomer, unassigned) [Compound 147] | A (“A” indicates maximum degradation ≥ 75%)
< 50 | – | > 0.1 | Cc1ncsc1-c1ccc([C@H](C)NC(=O)[C@@H]2C[C@@H](O)CN2C(=O)[C@@H](c2cc(CCN3CC(c4cc5cc(-c6ccccc6O)nnc5[nH]4)C3)no2)C(C)C)cc1 (single isomer, unassigned) [Compound 152] | B (“B” indicates maximum degradation ≥ 50%)
< 50 | – | – | Cc1ncsc1-c1ccc([C@H](C)NC(=O)[C@@H]2C[C@@H](O)CN2C(=O)[C@H](c2cc(C3CN(C(=O)[C@H]4CCc5[nH]c6nnc(-c7ccccc7O)cc6c5C4)C3)no2)C(C)C)cc1 (single isomer, unassigned) [Compound 153] | C (“C” indicates maximum degradation < 50%)
< 50 | – | – | Cc1ncsc1-c1ccc([C@H](C)NC(=O)[C@@H]2C[C@@H](O)CN2C(=O)[C@H](c2cc(C3CN(C(=O)[C@@H]4CCc5[nH]c6nnc(-c7ccccc7O)cc6c5C4)C3)no2)C(C)C)cc1 (single isomer, unassigned) [Compound 154] | C (“C” indicates maximum degradation < 50%)
< 50 | – | – | Cc1ncsc1-c1ccc([C@H](C)NC(=O)[C@@H]2C[C@@H](O)CN2C(=O)[C@H](c2cc(C3CCN(C(=O)[C@H]4CCc5[nH]c6nnc(-c7ccccc7O)cc6c5C4)CC3)no2)C(C)C)cc1 (single isomer, unassigned) [Compound 155] | C (“C” indicates maximum degradation < 50%)
< 50 | – | > 0.1 | Cc1ncsc1-c1ccc([C@H](C)NC(=O)[C@@H]2C[C@@H](O)CN2C(=O)[C@@H](c2cc(C3CN(C(=O)[C@@H]4CCc5[nH]c6nnc(-c7ccccc7O)cc6c5C4)C3)no2)C(C)C)cc1 (single isomer, unassigned) [Compound 158] | A (“A” indicates maximum degradation ≥ 75%)
> 50 | > 1 | – | Cc1ncsc1-c1ccc([C@H](C)NC(=O)[C@@H]2C[C@@H](O)CN2C(=O)[C@H](c2cc(N3CC(CN4CC(c5cc6cc(-c7ccccc7O)nnc6[nH]5)C4)C3)no2)C(C)C)cc1 (single isomer, unassigned) [Compound 162] | C (“C” indicates maximum degradation < 50%)
> 50 | > 0.1 | > 0.01 | Cc1ncsc1-c1ccc([C@H](C)NC(=O)[C@@H]2C[C@@H](O)CN2C(=O)[C@@H](c2cc(N3CC(CN4CC(c5cc6cc(-c7ccccc7O)nnc6[nH]5)C4)C3)no2)C(C)C)cc1 (single isomer, unassigned) [Compound 163] | A (“A” indicates maximum degradation ≥ 75%)
< 50 | – | > 0.1 | Cc1ncsc1-c1ccc([C@H](C)NC(=O)[C@@H]2C[C@@H](O)CN2C(=O)[C@@H](c2cc(OCCN(C)[C@H]3CCc4[nH]c5nnc(-c6ccccc6O)cc5c4C3)no2)C(C)C)cc1 (single isomer, unassigned) [Compound 165] | A (“A” indicates maximum degradation ≥ 75%)
< 50 | > 1 | > 0.01 | Cc1ncsc1-c1ccc([C@H](C)NC(=O)[C@@H]2C[C@@H](O)CN2C(=O)[C@@H](c2cc(C3CCN(C(=O)[C@@H]4CCc5[nH]c6nnc(-c7ccccc7O)cc6c5C4)CC3)no2)C(C)C)cc1 (single isomer, unassigned) [Compound 166] | A (“A” indicates maximum degradation ≥ 75%)
> 50 | > 0.1 | > 0.1 | Cc1ncsc1-c1ccc([C@H](C)NC(=O)[C@@H]2C[C@@H](O)CN2C(=O)[C@@H](c2cc(OCCNC(=O)[C@H]3CCc4[nH]c5nnc(-c6ccccc6O)cc5c4C3)no2)C(C)C)cc1 (single isomer, unassigned) [Compound 167] | A (“A” indicates maximum degradation ≥ 75%)
< 50 | – | > 0.01 | Cc1ncsc1-c1ccc([C@H](C)NC(=O)[C@@H]2C[C@@H](O)CN2C(=O)[C@@H](c2cc(OCC(=O)N[C@H]3CCc4[nH]c5nnc(-c6ccccc6O)cc5c4C3)no2)C(C)C)cc1 (single isomer, unassigned) [Compound 168] | A (“A” indicates maximum degradation ≥ 75%)
< 50 | – | > 0.01 | Cc1ncsc1-c1ccc([C@H](C)NC(=O)[C@@H]2C[C@@H](O)CN2C(=O)[C@@H](c2cc(OCCNC(=O)[C@@H]3CCc4[nH]c5nnc(-c6ccccc6O)cc5c4C3)no2)C(C)C)cc1 (single isomer, unassigned) [Compound 172] | A (“A” indicates maximum degradation ≥ 75%)
> 50 | > 1 | > 0.1 | Cc1ncsc1-c1ccc([C@H](C)NC(=O)[C@@H]2C[C@@H](O)CN2C(=O)[C@@H](c2cc(N3CCC(CN[C@@H]4CCc5[nH]c6nnc(-c7ccccc7O)cc6c5C4)CC3)no2)C(C)C)cc1 (single isomer, unassigned) [Compound 173] | A (“A” indicates maximum degradation ≥ 75%)
< 50 | – | – | Cc1ncsc1-c1ccc([C@H](C)NC(=O)[C@@H]2C[C@@H](O)CN2C(=O)[C@H](c2cc(C3CN(C(=O)c4cc5cc(-c6ccccc6O)nnc5[nH]4)C3)no2)C(C)C)cc1 (single isomer, unassigned) [Compound 176] | C (“C” indicates maximum degradation < 50%)
< 50 | – | – | Cc1ncsc1-c1ccc([C@H](C)NC(=O)[C@@H]2C[C@@H](O)CN2C(=O)[C@@H](c2cc(C3CN(C(=O)c4cc5cc(-c6ccccc6O)nnc5[nH]4)C3)no2)C(C)C)cc1 (single isomer, unassigned) [Compound 178] | C (“C” indicates maximum degradation < 50%)
< 50 | – | > 0.1 | Cc1ncsc1-c1ccc([C@H](C)NC(=O)[C@@H]2C[C@@H](O)CN2C(=O)[C@@H](c2cc(C3CCN(C(=O)CN4CC(c5cc6cc(-c7ccccc7O)nnc6[nH]5)C4)CC3)no2)C(C)C)cc1 (single isomer, unassigned) [Compound 179] | A (“A” indicates maximum degradation ≥ 75%)
< 50 | – | > 1 | Cc1ncsc1-c1ccc(CNC(=O)[C@@H]2C[C@@H](O)CN2C(=O)[C@@H](NC(=O)CCCC(=O)N[C@H]2CCc3[nH]c4nnc(-c5ccccc5O)cc4c3C2)C(C)(C)C)cc1 (single isomer, unassigned) [Compound 184] | B (“B” indicates maximum degradation ≥ 50%)
> 75 | > 0.1 | > 0.1 | Cc1ncsc1-c1ccc([C@H](C)NC(=O)[C@@H]2C[C@@H](O)CN2C(=O)[C@@H](c2cc(N3CCN(C(=O)[C@H]4CCc5[nH]c6nnc(-c7ccccc7O)cc6c5C4)CC3)no2)C(C)C)cc1 (single isomer, unassigned) [Compound 188] | A (“A” indicates maximum degradation ≥ 75%)
< 50 | – | – | Cc1ncsc1-c1ccc(CNC(=O)[C@@H]2C[C@@H](O)CN2C(=O)[C@@H](NC(=O)CCCNC(=O)[C@H]2CCc3[nH]c4nnc(-c5ccccc5O)cc4c3C2)C(C)(C)C)cc1 (single isomer, unassigned) [Compound 190] | C (“C” indicates maximum degradation < 50%)
< 50 | – | – | Cc1ncsc1-c1ccc(CNC(=O)[C@@H]2C[C@@H](O)CN2C(=O)[C@@H](NC(=O)CNC(=O)[C@H]2CCc3[nH]c4nnc(-c5ccccc5O)cc4c3C2)C(C)(C)C)cc1 (single isomer, unassigned) [Compound 191] | C (“C” indicates maximum degradation < 50%)
< 50 | – | > 0.01 | Cc1ncsc1-c1ccc([C@H](C)NC(=O)[C@@H]2C[C@@H](O)CN2C(=O)[C@@H](c2cc(N3CCN(C(=O)[C@@H]4CCc5[nH]c6nnc(-c7ccccc7O)cc6c5C4)CC3)no2)C(C)C)cc1 (single isomer, unassigned) [Compound 192] | A (“A” indicates maximum degradation ≥ 75%)
< 50 | – | > 0.1 | Cc1ncsc1-c1ccc(CNC(=O)[C@@H]2C[C@@H](O)CN2C(=O)[C@@H](NC(=O)CCCNC(=O)[C@@H]2CCc3[nH]c4nnc(-c5ccccc5O)cc4c3C2)C(C)(C)C)cc1 (single isomer, unassigned) [Compound 196] | B (“B” indicates maximum degradation ≥ 50%)
< 50 | – | – | Cc1ncsc1-c1ccc(CNC(=O)[C@@H]2C[C@@H](O)CN2C(=O)[C@@H](NC(=O)CNC(=O)[C@@H]2CCc3[nH]c4nnc(-c5ccccc5O)cc4c3C2)C(C)(C)C)cc1 (single isomer, unassigned) [Compound 197] | C (“C” indicates maximum degradation < 50%)
> 75 | > 0.1 | > 0.1 | Cc1ncsc1-c1ccc([C@H](C)NC(=O)[C@@H]2C[C@@H](O)CN2C(=O)[C@@H](c2cc(OCCN3CC(CCc4[nH]c5nnc(-c6ccccc6O)cc5c4C)C3)no2)C(C)C)cc1 (single isomer, unassigned) [Compound 198] | A (“A” indicates maximum degradation ≥ 75%)
